From paper PMC12951551, “Do Amino-Oxetanes Resemble Amides? A Matched Molecular Pairs Property and Structural Comparison” (Journal of Medicinal Chemistry, 2026)
Values after ≈ are worked out from the molar mass of the structure shown.

Legend:
Kinetic solubility = format: physicochemical; conditions: for solubility at 24 h: aqueous pH buffer, aqueous buffer, kinetic from dmso stock, 37 °C, 600 µM start
Experimental: (§1) Aqueous buffer preparation: pH 3: 50 µL of 1N hydrochloric acid was added to 500 mL of deionized water. The solution was titrated with 1N hydrochloric acid to pH 3, and back titrated with 1N sodium hydroxide. pH 7.4: 100 mM sodium phosphate buffer is made by adding 56.4 g of dibasic sodium phosphate and 10.3 g of monobasic sodium phosphate to 4 L of deionized water. 250 µL of 100 mM sodium phosphate buffer was diluted with 250 µL of deionized water. The solution was titrated with 1N hydrochloric acid to pH 7.4, and back titrated with 1N sodium hydroxide. pH 10: Fisher Scientific pH 10 buffer (SB116-500) containing potassium hydroxide, potassium carbonate, and potassium […]
pH 12.8: 30 mL of 1N NaOH was added to 200 mL of deionized water. The solution was titrated with 1N sodium hydroxide to pH 12.8 and back titrated with 1N hydrochloric acid.
Kinetic solubility: Samples were diluted to 600 µM in the appropriate pH buffer (pH: 3, 7.4, 10) and to 600 µM (assumed 100% solubility) in a DMSO standard. Samples were mixed thoroughly and incubated at 37 °C for 24 h.
Following incubation, pH samples were transferred to a […] PVDF (low binding) and filtered to remove any precipitate. The filtrate was collected and analyzed via MS/MS. The ratio of MS response (DMSO:pH) is taken and multiplied by the initial 600 µM concentration to determine the concentration (solubility) of the samples in pH buffers. […]
(§2) Permeability assay (RRCK): Ralph Russ canine kidney cells were used for permeability measurements using a cell monolayer in 96-transwell format. The detailed assay conditions have been reported previously.9 Test compounds were added to the donor wells and a buffer was added to the receiver wells to start the apical to basolateral transport assay.
(§3) Time 0 and 1.5 h incubation samples were taken for LC-MS/MS analysis. Apparent permeability (Papp) was calculated using the equation below (1), where Area is the surface area of the cell monolayer (0.0625 cm2), CD(0) is the […]

[1] = Shake flask LogD (SFLogD) assay; format: physicochemical; conditions: for logD: pH = 7.4, octanol/water shake flask, average of 2 runs unless otherwise stated
Experimental: as §2, §3

[2] = Chemical (pH) stability assay; format: physicochemical; conditions: 24 h under acidic, neutral, and basic conditions
Experimental: Chemical stability assay: The chemical stability assay was performed in 384 well plate format (volume = […]).
Plates were prefilled with 70 µL of the appropriate buffer (pH 1.2, 7.4, 10) after which the wells were spiked with 5 µL of test compounds (1 mM). Samples were incubated for their timepoint of interest (1 h, 4 h, 24 h) at 37 °C after which the samples were diluted in MeCN (and pH 12.8 buffer for experiment at pH 1.2), mixed with an internal standard and […]
as §1, §3

[3] = Permeability assay (RRCK); format: in vitro ADME, canine; conditions: dog, MDCK, apical to basolateral, average of 2 runs, footnote b = only one replicate
[4] = Experimental pKaH (amine basicity); format: physicochemical; conditions: for pKa: Table S2; for pKaH: text and Figure 6
Text: The influence of basicity is an ongoing rationale for inclusion of the oxetanes in drug candidates, providing the potential to attenuate off-target effects including hERG channel inhibition. […] As comparison against the benzamide analogue is not possible, we instead looked at the head-to-head comparison between amino-oxetane 4a and benzylamine 18 (Figure ).

human hepatocytes = assay: Human Hepatocyte (HHEP) stability assay, clearance; format: in vitro ADME; conditions: human hepatocytes, 0.5 million cells/mL, 1 µM test compound
Experimental: Human Hepatocyte (HHEP) assay: The high throughput HHEP stability assay was performed in a 384-well format (Greiner Bio-One, Monroe, NC). The cryopreserved HHEP were thawed, and re-suspended in Williams E medium (WEM, custom formula number 91-5233EC; Invitrogen, Grand Island, NY) supplemented with HEPES and Na2CO3. The cells were counted using the Trypan Blue exclusion method. A multidrop liquid dispenser (Multidrop DW, Thermo Scientific, Waltham, MA) was used to add the HHEP suspensions to the 384-well plates. The cell plates were covered and transferred to a Cytomat 2 incubator (ThermoFisher) and Biomek i7 (Beckman Coulter, Indianapolis, IN), equipped with three 3position MéCour heat exchangers. Test compounds were diluted on the Biomek i7 with buffer (15 µL) and added to the HHEP (30 µL). The final incubation contained 0.5 million cells/mL and 1 µM test compound in 45 µL total volume containing 0.01% DMSO. The incubation was carried out at 37 °C in the Cytomat 2 incubator (relative humidity ≥ 90%, 5% CO2/95% air). At various time points (2, 4, 11, 45, 75, 120, and 240 min), the plate was pulled out from the incubator by the Biomek i7 robot and put on the MéCour heated exchanger. Samples (3 µL) were transferred to a 384-well plate containing 30 µL acetonitrile with an internal standard (IS) to quench the reaction. Water (60 µL) was added to the quenched plate to dilute the organic solvent content for LC-MS/MS analysis. The plates were centrifuged at 3000 rpm for 10 min at 4 °C, sealed and subsequently analyzed using LC-MS/MS without further transfer of the supernatant.
Propranolol (CYP2D6), midazolam (CYP3A) and triazolam (CYP3A, low clearance), naloxone (UGT2B7), carbazeran (AO), and verapamil (CYP3A, CYP2C8) were used as positive controls. For CYP inhibition study, 1 mM ABT (a pan-cYP inhibitor) was pre-incubated with HHEP for 30 minutes at 37 °C before adding test compounds. Values are n >3 unless […]
as §2, §3

| Kinetic solubility, in words (Kinetic solubility; pH 3) | logD [1] | Papp at 1.5 h [3] | pKa [4] | Change in SFlogD of the carbonyl-to-oxetane replacement ([1]; pH 7.4, amino-oxetane versus matched benzamide) | SMILES | solubility at 24 h (Kinetic solubility; pH 3) | solubility at 24 h (Kinetic solubility; pH 7.4) | solubility at 24 h (Kinetic solubility; pH 10) | pH stability, in words [2] | Kinetic solubility, in words (Kinetic solubility; across acidic, neutral, and basic conditions, compared with benzamide counterpart) | pKaH [4] | HHEPG clearance (human hepatocytes) |
| --- | --- | --- | --- | --- | --- | --- | --- | --- | --- | --- | --- | --- |
| markedly improved solubility | 3.6 | 25.8 ×10⁻⁶ cm/s | – | – | COc1ccc(C2(NCC34C[C@H]5C[C@@H](C3)C[C@@H](C4)C5)COC2)cc1 [1a, N-(((3R,5R,7R)-Adamantan-1-yl)Methyl)-3-(4-Methoxyphenyl)Oxetan-3-Amine] | 533 µM (≈ 175 µg/mL) | < 8.9 µM | < 0.3 µM | reduced stability under neutral and basic conditions | – | – | – |
| – | 1.55 | 36.7 ×10⁻⁶ cm/s | 3.08 | +0.44 | O=S(=O)(c1ccccc1)c1ccc(C2(N3CCOCC3)COC2)cc1 [10a, 4-(3-(4-(Phenylsulfonyl)Phenyl)Oxetan-3-yl)Morpholine] | – | – | – | – | – | – | 4 μL min^−1 million^−1 |
| – | – | – | 7.25 | – | COc1ccc(CN2CCOCC2)cc1 [compound 18, 4-(4-Methoxybenzyl)Morpholine] | – | – | – | – | – | 7.25 | – |

| SMILES | Kinetic solubility, in words (Kinetic solubility; pH 3) | logD [1] | Papp at 1.5 h [3] | pKa [4] | Change in SFlogD of the carbonyl-to-oxetane replacement ([1]; pH 7.4, amino-oxetane versus matched benzamide) | solubility at 24 h (Kinetic solubility; pH 3) | solubility at 24 h (Kinetic solubility; pH 7.4) | solubility at 24 h (Kinetic solubility; pH 10) | pH stability, in words [2] | Kinetic solubility, in words (Kinetic solubility; across acidic, neutral, and basic conditions, compared with benzamide counterpart) | pKaH [4] | HHEPG clearance (human hepatocytes) |
| --- | --- | --- | --- | --- | --- | --- | --- | --- | --- | --- | --- | --- |
| COc1ccc(C2(N3CCOCC3)COC2)cc1 [4a, 4-(3-(4-Methoxyphenyl)Oxetan-3-yl)Morpholine] | – | 1.17 | 39.2 ×10⁻⁶ cm/s | 4.61 | – | 486 µM (≈ 121 µg/mL) | 556 µM (≈ 139 µg/mL) | 492 µM (≈ 123 µg/mL) | – | solubility comparable to their analogous benzamides | 4.61 | 4 μL min^−1 million^−1 |
